What was measured:
[1] = system: NCI-H1437 xenograft tumors; experiment: In vivo combination study (NCI-H1437 model), Example 2; parameters: species or system female nu/nu mice; conditions: MRTX1719 and ABT-263 100 mg/kg PO QD, A-1331852 25 mg/kg PO QD, alone or combined
From the text: (§1) Immunodeficient female nu/nu mice were implanted with 5×10^6 LU99 cancer cells in 50% Matrigel. Tumor volume measurements were collected using calipers and determined utilizing the formula 0.5×L×W^2 in which L refers to length and W refers to width of each tumor. When tumors reached approximately 125-150 mm^3, animals were randomized to receive A) vehicle, B) a PRMT5 inhibitor, C) navitoclax (ABT-263), D) venetoclax (ABT-199), E) A-1331852, F) the PRMT5 inhibitor and navitoclax, F) the PRMT5 inhibitor and venetoclax, or G) the PRMT5 inhibitor and A-1331852 all administered orally (PO) with the indicated dose and schedule for 20-34 days. Tumor volume was measured twice a week (n=5/treatment group). Average tumor volume and standard error of the mean was calculated and plotted at each study day using GraphPad Prism.
Example 2 was carried out using NCI-H1437 cell line derived xenografts according to the in vivo study procedure described above in Example 1.
(§2) The PRMT5 inhibitor was MRTX1719 administered at 100 mg/kg once a day (QD). MRTX1719 is (2M)-2-(4-(4-(aminomethyl)-1-oxo-1,2-dihydrophthalazin-6-yl)-1-methyl-1H-pyrazol-5-yl)-4-chloro-6-cyclopropoxy-3-fluorobenzonitrile, disclosed as Example 16-8 at p. 307 of the international patent publication No. WO 2021/050915 A1, published 18 Mar. 2021, incorporated by reference in its entirety. The BCL-2 family inhibitor, ABT-263 (navitoclax), was administered at 100 mg/kg once a day (QD) and supplied by Selleck Chemicals (Houston, TX). The BCL-2 family inhibitor A-1331852 was administered at 25 mg/kg once a day (QD) and synthesized at Wuxi AppTec (Wuhan, China).

[2] = system: SW1573 xenograft tumors; experiment: In vivo combination study (SW1573 model), Example 3; parameters: species or system female nu/nu mice; conditions: MRTX1719 and ABT-263 100 mg/kg PO QD, A-1331852 25 mg/kg PO QD, alone or combined
From the text: as §1
Example 3 was carried out in SW1573 cell line derived xenografts according to the in vivo study procedure described above in Example 1.
as §2

[3] = system: NCI-H1650 xenograft tumors; experiment: In vivo combination study (NCI-H1650 model), Example 5; parameters: species or system female nu/nu mice; conditions: MRTX1719 and ABT-263 100 mg/kg PO QD, A-1331852 25 mg/kg PO BID, alone or combined
From the text: as §1
Example 5 was carried out using NCI-H1650 cell line derived xenografts according to the in vivo study procedure described above in Example 1.
The PRMT5 inhibitor was MRTX1719 administered at 100 mg/kg once a day (QD). MRTX1719 is (2M)-2-(4-(4-(aminomethyl)-1-oxo-1,2-dihydrophthalazin-6-yl)-1-methyl-1H-pyrazol-5-yl)-4-chloro-6-cyclopropoxy-3-fluorobenzonitrile, disclosed as Example 16-8 at p. 307 of the international patent publication No. WO 2021/050915 A1, published 18 Mar. 2021, incorporated by reference in its entirety. The BCL-2 family inhibitor, ABT-263 (navitoclax), was administered at 100 mg/kg once a day (QD) and supplied by Selleck Chemicals (Houston, TX). The BCL-2 family inhibitor A-1331852 was administered at 25 mg/kg twice a day (BID) and synthesized at Wuxi AppTec (Wuhan, China).

[4] = system: H2052; experiment: In vitro combination synergy, H2052 (Cell-Titer Glo); format: cell-based; conditions: combined with exemplary PRMT5 inhibitor, 120 h, sum of Loewe, Bliss, HSA and ZIP scores
Protocol: (§3) A panel of MTAP-deleted cancer cell lines was assembled to determine whether combining BCL-2 family inhibitors with exemplary PRMT5 inhibitors disclosed herein results in synergistic activity.
(§4) [Assays for determining the synergy score for the pairwise combinations for each cell line were performed in triplicate. 384 or 96-well plates plus additional wells of a separate 384 or 96-well control plate for determining baseline luminescence were seeded with cells of a particular MTAP-deleted cell line in a suitable growth medium for that cell line, e.g., RPMI 1640 medium supplemented with 10% FBS and any cell line specific reagents needed for growth. The plates were incubated overnight at 37 °C in a 5% CO2 atmosphere.
(§5) To each of the designated baseline wells, Cell-Titer Glo reagent (CTG; Promega Corporation) was added to each well and the plates were incubated for 20 min shaking at room temperature. Baseline luminescence was quantitated using a BMG ClarioStar multimode plate reader according to the manufacturer's instructions.
(§6) A series of 1000× drug dilutions in 100% DMSO was prepared that includes a 9-point single agent 3-fold dilution of the exemplary PRMT5 inhibitor (of the type described in WO2021/050915) with a top dose of 3000 nM (and a 6-point single agent 5-fold dilution of the BCL-2 family inhibitor with a top dose of 3000 nM as reference standards.
(§7) A 10× intermediate dosing plate was prepared in serum free medium that contains arrayed single agent dilutions of exemplary PRMT5 inhibitor (of the type described in WO2021/050915) and or the BCL-2 family inhibitor. In addition, a matrix of 54 dilution combinations of exemplary PRMT5 inhibitor (of the type described in WO2021/050915) and the BCL-2 family inhibitor was prepared as test samples.
(§8) To each corresponding well of the 384-well plates seeded with the appropriate cell line above, 10× single agent and the 54 combinations of the dose matrix was added and the plates were incubated for 120 hours at 37 °C in 5% CO2 atmosphere. Cell-Titer Glo reagent (CTG) was added to each test well, the plates were incubated for 20 min shaking at room temperature, and luminescence was quantitated using a BMG ClarioStar multimode plate reader according to the manufacturer's instructions. To normalize test samples, the determined baseline luminescence was subtracted from each test sample prior to analysis and mean values are calculated from replicate samples.
(§9) The output of the data from each mathematical model is the assignment of a relative synergy score. The data reported in Table 6 are the aggregate sum of the Loewe additivity, Bliss independence, Highest Single Agent and ZIP synergy scores (“Composite Synergy Score”).

[5] = system: Mero83; experiment: In vitro combination synergy, Mero83 (Cell-Titer Glo); format: cell-based; conditions: combined with exemplary PRMT5 inhibitor, 120 h, sum of Loewe, Bliss, HSA and ZIP scores
Protocol: as §3, §4, §5, §6, §7, §8, §9

Structure (SMILES)	Average Tumor Volume ([1]; day 4) [mm^3]	Average Tumor Volume ([1]; day 7) [mm^3]	Average Tumor Volume ([1]; day 11) [mm^3]	Average Tumor Volume ([1]; day 14) [mm^3]	Average Tumor Volume ([1]; day 18) [mm^3]	Average Tumor Volume ([1]; day 21) [mm^3]	Average Tumor Volume ([1]; day 25) [mm^3]	Average Tumor Volume ([1]; day 28) [mm^3]	Average Tumor Volume ([1]; day 34) [mm^3]	Average Tumor Volume ([1]; day −1) [mm^3]	Average Tumor Volume ([2]; day 3) [mm^3]	Average Tumor Volume ([2]; day 6) [mm^3]	Average Tumor Volume ([2]; day 10) [mm^3]	Average Tumor Volume ([2]; day 13) [mm^3]	Average Tumor Volume ([2]; day 17) [mm^3]	Average Tumor Volume ([2]; day 20) [mm^3]	Average Tumor Volume ([2]; day 26) [mm^3]	Average Tumor Volume ([2]; day −1) [mm^3]	Average Tumor Volume ([3]; day 0) [mm^3]	Average Tumor Volume ([3]; day 5) [mm^3]	also measured
Cn1ncc(-c2ccc3c(=O)[nH]nc(CN)c3c2)c1-c1c(F)c(Cl)cc(OC2CC2)c1C#N (atropisomer, axis not shown; (M)) [MRTX1719, (2M)-2-(4-(4-(aminomethyl)-1-oxo-1,2-dihydrophthalazin-6-yl)-1-methyl-1H-pyrazol-5-yl)-4-chloro-6-cyclopropoxy-3-fluorobenzonitrile]	200	244	268	288	316	322	340	362	441	139	172	220	229	242	319	387	444	126	149	246	Average Tumor Volume ([3]; day 8): 292 mm^3; Average Tumor Volume ([3]; day 13): 344 mm^3; Average Tumor Volume ([3]; day 15): 398 mm^3; Average Tumor Volume ([3]; day 19): 469 mm^3; Average Tumor Volume ([3]; day 22): 510 mm^3
Cc1c(-c2ccc(N3CCc4cccc(C(=O)Nc5nc6ccccc6s5)c4C3)nc2C(=O)O)cnn1CC12CC3CC(CC(C3)C1)C2 [A-1331852]	171	191	248	300	332	376	467	564	683	139	209	250	271	305	421	456	609	125	143	163	Average Tumor Volume ([3]; day 8): 189 mm^3; Average Tumor Volume ([3]; day 13): 255 mm^3; Average Tumor Volume ([3]; day 15): 291 mm^3; Average Tumor Volume ([3]; day 19): 347 mm^3; Average Tumor Volume ([3]; day 22): 366 mm^3; Composite Synergy Score [4]: 12; Composite Synergy Score [5]: 11
CC1(C)CCC(c2ccc(Cl)cc2)=C(CN2CCN(c3ccc(C(=O)NS(=O)(=O)c4ccc(N[C@H](CCN5CCOCC5)CSc5ccccc5)c(S(=O)(=O)C(F)(F)F)c4)cc3)CC2)C1 [ABT-263, navitoclax]	172	192	244	269	288	299	389	420	472	138	265	328	395	536	678	809	1133	123	155	186	Average Tumor Volume ([3]; day 8): 210 mm^3; Average Tumor Volume ([3]; day 13): 302 mm^3; Average Tumor Volume ([3]; day 15): 319 mm^3; Average Tumor Volume ([3]; day 19): 339 mm^3; Average Tumor Volume ([3]; day 22): 371 mm^3; Composite Synergy Score [4]: 11; Composite Synergy Score [5]: −26

— patent US20260355188A1, “COMBINATION THERAPIES USING PRMT5 INHIBITORS AND BCL-2 FAMILY INHIBITORS FOR THE TREATMENT OF CANCER” (MIRATI THERAPEUTICS, INC., priority 2022, published 2026)
